# How the values were obtained:
# Type in all cases: cell-based, Pseudomonas fluorescens
# [1] = test system: BM07-ΔphaZ; assay: PHA production, one-step cultivation on 50 mM fructose and 5 mM 11-POU; conditions: 1 mM salicylic acid, 50 mM fructose + 5 mM 11-POU; for Dry cell weight / PHA (aliphatic monomer) / PHA (aromatic monomer) / Polyester content: 30° C.
# Experimental: (§1) In the main cultures, 500 μl of the culture grown in NR or LB medium was transferred to 50 ml M1 mineral-salts medium containing 50 mM fructose, 5 mM 11-POU, 0 or 1 mM salicylic acid and 1.0 g/L ammonium sulfate in a 250 mL flask and cultivated at 30° C. Salicylic acid was dissolved by adding sodium hydroxide and the pH of the solution was adjusted to 7.2 before adding to medium. Cell growth was determined by measuring dry cell weight (DCW). The remaining fructose was measured using DNS method and the remaining 11-POU or other carboxylic acids were determined by gas chromatography. The cells were isolated by centrifuging (10,000×g, 10 min), the cell suspension was washed with methanol and dried under vacuum at room temperature for 48 hours. The remaining NH4^+ was measured using Nessler's reagent. In the time-course profiling experiments, a set of culture flasks equal to the planned sampling times (every 4 or 6 h) was prepared and cultivated under the same culture condition. One of the flasks was withdrawn every scheduled time and the medium (50 ml) was centrifuged and analyzed.
# (§2) The monomer composition of the PHA in cells was determined by analyzing the methyl esters, recovered from a sulfuric acid/methanol treatment of the cells, using a Hewlett-Packard HP5890 Series II gas chromatograph equipped with a HP-1 capillary column and a flame ionization detector. The gas chromatography (GC) run conditions were as follows: initial temperature of 80° C. for 2 min; heating rate of 8° C./min; final temperature of 250° C. for 6.75 min; carrier (He) flow rate of 3 ml/min; injector temperature of 230° C.; and detector temperature of 280° C. The standardization of each GC peak was made against the PHA of known structure characterized by quantitative NMR analyses
# [2] = test system: P. fluorescens BM07 wild-type; assay: as above; conditions: 1 mM salicylic acid, 50 mM fructose + 5 mM 11-POU; for Dry cell weight / PHA (aliphatic monomer) / PHA (aromatic monomer) / Polyester content: 30° C.
# Experimental: as §1, §2
# [3] = test system: BM07 (pBBR-phaZ); assay: PHA production on 50 mM fructose/5 mM 11-POU in PhaZ over-expressed strain; conditions: 1 mM salicylic acid
# Experimental: as §1, with “In the time-course profiling experiments, a set of culture flasks equal to the planned sampling times (every 4 or 6 h) was prepared and cultivated under the same culture condition.” left out
# The monomer composition of the PHA in cells was determined by analyzing the methyl esters, recovered from a sulfuric acid/methanol treatment of the cells, using a Hewlett-Packard HP5890 Series II gas chromatograph equipped with a HP-1 capillary column and a flame ionization detector. […] The standardization of each GC peak was made against the PHA of known structure characterized by quantitative NMR analyses
# [4] = test system: BM07 wild-type; assay: Aromatic PHA production, one-step cultivation on 50 mM fructose and 10 mM 5-PV or 6PC; conditions: 1 mM salicylic acid, 30° C.
# Experimental: as §1, with “In the main cultures, 500 μl of the culture grown in NR or LB medium was transferred to 50 ml M1 mineral-salts medium containing 50 mM fructose, 5 mM 11-POU, 0 or 1 mM salicylic acid and 1.0 g/L ammonium sulfate in a 250 mL flask and cultivated at 30° C.” left out
# as §2
# [5] = test system: BM07-ΔphaZ; assay: as above; conditions: 1 mM salicylic acid, 30° C., culture time 72 h
# Experimental: as §1, with “In the main cultures, 500 μl of the culture grown in NR or LB medium was transferred to 50 ml M1 mineral-salts medium containing 50 mM fructose, 5 mM 11-POU, 0 or 1 mM salicylic acid and 1.0 g/L ammonium sulfate in a 250 mL flask and cultivated at 30° C.” left out
# as §2
# [6] = 50 mM fructose + 10 mM 5PV, culture time 72 h
# [7] = 50 mM fructose + 10 mM 6PC, culture time 60 h
compound,measurement,setting,value
"O=C(O)c1ccccc1O [Salicylic acid, salicylic acid]","Content of aliphatic MCL-monomer-units, share of the total PHA",[1],~10%
same,Effect on accumulation of aromatic PHA from 11-POU,[1],significantly retarded the accumulation of aromatic PHA from 11-POU
same,Effect on cell growth,[1],did not significantly delay the cell growth
same,Time of maximum PHA accumulation,[1],around 70 hours
same,Time of maximum cell growth,[1],50 to 60 h
same,Dry cell weight,[1]; culture time 72 h,1.68 ± 0.11 g/L
same,PHA (aliphatic monomer),[1]; culture time 72 h,4.8 ± 0.3 wt. %
same,PHA (aromatic monomer),[1]; culture time 72 h,44.1 ± 1.6 wt. %
same,Polyester content,[1]; culture time 72 h,48.9 ± 1.9 wt. %
same,Dry cell weight,[1]; culture time 96 h,1.72 ± 0.09 g/L
same,PHA (aliphatic monomer),[1]; culture time 96 h,4.3 ± 0.4 wt. %
same,PHA (aromatic monomer),[1]; culture time 96 h,48.7 ± 1.4 wt. %
same,Polyester content,[1]; culture time 96 h,53.0 ± 1.8 wt. %
same,"Incorporation of aliphatic monomer-units, share of the total PHA content",[2],~10%
same,Dry cell weight,[2]; culture time 48 h,1.36 ± 0.10 g/L
same,PHA (aliphatic monomer),[2]; culture time 48 h,3.1 ± 0.2 wt. %
same,PHA (aromatic monomer),[2]; culture time 48 h,20.8 ± 0.9 wt. %
same,Polyester content,[2]; culture time 48 h,23.9 ± 1.1 wt. %
same,Dry cell weight,[2]; culture time 72 h,1.78 ± 0.06 g/L
same,PHA (aliphatic monomer),[2]; culture time 72 h,2.5 ± 0.5 wt. %
same,PHA (aromatic monomer),[2]; culture time 72 h,26.8 ± 1.6 wt. %
same,Polyester content,[2]; culture time 72 h,29.3 ± 2.1 wt. %
same,"Incorporation of aliphatic monomer-units, share of the total PHA content at the maximum accumulation",[3],< 4%
same,Aromatic PHA content,[4]; [6],34.2 ± 1.5 wt. %
same,Dry cell weight,[4]; [6],1.98 ± 0.08 g/L
same,Aromatic PHA content,[4]; [7],32.8 ± 1.7 wt. %
same,Dry cell weight,[4]; [7],1.78 ± 0.13 g/L
same,Aromatic PHA content,[5]; 50 mM fructose + 10 mM 5PV,49.9 ± 1.3 wt. %
same,Dry cell weight,[5]; 50 mM fructose + 10 mM 5PV,2.10 ± 0.06 g/L
same,Aromatic PHA content,[5]; 50 mM fructose + 10 mM 6PC,35.1 ± 1.2 wt. %
same,Dry cell weight,[5]; 50 mM fructose + 10 mM 6PC,1.72 ± 0.08 g/L

# Source: patent US8658403B2, “Method for producing polyhydroxyalkanoic acid” (priority 2009, dated 2014)
